Test results from ChEMBL document CHEMBL3286168, “Synthesis of 2'-O,4'-C-alkylene-bridged ribonucleosides and their evaluation as inhibitors of HCV NS5B polymerase” (Bioorg Med Chem Lett, 2014).

How the values were obtained:
Hepatitis C virus = assay: Antiviral activity against wild type Hepatitis C virus genotype 1b infected in human HuH7 cells after 72 hrs by luciferase reporter gene assay; assay type: functional, cell-based, Hepacivirus hominis; settings: Huh-7, 72 h
[1] = Cytotoxicity against human HuH7 cells up to 100 uM after 3 hrs by CellTiter-Blue cell viability assay; assay type: cell-based; settings: huh-7, 3 h
[2] = target: RNA-directed RNA polymerase (Hepacivirus hominis, UniProt O39930, S282T); assay: Inhibition of purified Hepatitis C virus NS5B polymerase S282T mutant; parameters: species or system Hepatitis C virus subtype 1b
[3] = Inhibition of purified wild type Hepatitis C virus 1b NS5B polymerase; parameters: species or system Hepatitis C virus subtype 1b
[4] = system: Hepatitis C virus subtype 1b; assay: Selectivity ratio of IC50 for Hepatitis C virus NS5B polymerase S282T mutant to wild type Hepatitis C virus 1b NS5B polymerase
[5] = Inhibition of purified wild type Hepatitis C virus 2a NS5B polymerase; parameters: species or system Hepatitis C virus subtype 2a
[6] = Inhibition of purified wild type Hepatitis C virus 4a NS5B polymerase; parameters: species or system Hepatitis C virus subtype 4a
[7] = Inhibition of purified wild type Hepatitis C virus 3a NS5B polymerase; parameters: species or system Hepatitis C virus subtype 3a
[8] = Inhibition of purified wild type Hepatitis C virus 1a NS5B polymerase; parameters: species or system Hepatitis C virus subtype 1a

RNA-directed RNA polymerase, sequence (O39930 entry or part of it S282T): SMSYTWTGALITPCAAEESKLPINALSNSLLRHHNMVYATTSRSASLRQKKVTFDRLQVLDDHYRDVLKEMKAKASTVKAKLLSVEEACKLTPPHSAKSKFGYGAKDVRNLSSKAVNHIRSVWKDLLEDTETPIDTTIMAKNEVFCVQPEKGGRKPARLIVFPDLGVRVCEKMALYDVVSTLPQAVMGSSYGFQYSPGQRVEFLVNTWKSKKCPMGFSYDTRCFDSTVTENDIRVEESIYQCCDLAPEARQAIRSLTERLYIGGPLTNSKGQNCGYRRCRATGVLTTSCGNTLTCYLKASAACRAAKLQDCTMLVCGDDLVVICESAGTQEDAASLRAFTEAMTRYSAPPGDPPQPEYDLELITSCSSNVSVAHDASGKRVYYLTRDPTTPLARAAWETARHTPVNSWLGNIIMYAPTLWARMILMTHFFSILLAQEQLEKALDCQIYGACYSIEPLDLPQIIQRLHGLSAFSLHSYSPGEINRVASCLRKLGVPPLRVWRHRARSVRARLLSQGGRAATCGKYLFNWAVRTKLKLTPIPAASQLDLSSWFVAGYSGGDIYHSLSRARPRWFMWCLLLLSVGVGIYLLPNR

With `C[C@]12OC[C@](CO)(O[C@H]1n1cnc3c(=O)[nH]c(N)nc31)[C@H]2O` the EC50 (Hepatitis C virus) was greater than 50 µM and the Activity [1] was “Non-toxic”.
With `Nc1nc2c(ncn2[C@@H]2O[C@@]3(COP(=O)(O)OP(=O)(O)OP(=O)(O)O)CCO[C@@H]2[C@@H]3O)c(=O)[nH]1` the IC50 [2] was greater than 100 µM and the IC50 [3] was greater than 100 µM.
In the case of `CC(OP(=O)(O)OP(=O)(O)OP(=O)(O)O)[C@@]12CO[C@@H]([C@H](n3cnc4c(=O)[nH]c(N)nc43)O1)[C@@H]2O` (stereo in doubt; form 1), the IC50 [2] is reported as 25.1 µM and the IC50 [3] is reported as 15.9 µM.
With `O=c1ccn([C@@H]2O[C@@]3(CO)CO[C@@H]2[C@@H]3O)c(=O)[nH]1` the EC50 (Hepatitis C virus) was greater than 50 µM and the Activity [1] was “Non-toxic”.
`CC(OP(=O)(O)OP(=O)(O)OP(=O)(O)O)[C@@]12CO[C@@H]([C@H](n3cnc4c(=O)[nH]c(N)nc43)O1)[C@@H]2O` (stereo in doubt; form 2) gave an IC50 [2] greater than 100 µM and an IC50 [3] greater than 100 µM.
In the case of `Nc1ncnc2c1ncn2[C@@H]1O[C@@]2(CO)CO[C@@H]1[C@@H]2O`, the EC50 (Hepatitis C virus) is reported as greater than 50 µM and the Activity [1] is reported as “Non-toxic”.
With `CC(O)[C@@]12CO[C@@H]([C@H](n3cnc4c(=O)[nH]c(N)nc43)O1)[C@@H]2O` (mixture of isomers) the EC50 (Hepatitis C virus) was greater than 50 µM and the Activity [1] was “Non-toxic”.
With `C[C@]12OC[C@](COP(=O)(O)OP(=O)(O)OP(=O)(O)O)(O[C@H]1n1cnc3c(=O)[nH]c(N)nc31)[C@H]2O` the IC50 [2] was 0.48 µM, the Ratio IC50 [4] was 2 and the IC50 [3] was 0.2 µM.
In the case of `Nc1ncnc2c1ncn2[C@@H]1O[C@@]2(COP(=O)(O)OP(=O)(O)OP(=O)(O)O)CO[C@@H]1[C@@H]2O`, the IC50 [2] is reported as 86.3 µM and the IC50 [3] is reported as 39.8 µM.
With `Nc1nc2c(ncn2[C@@H]2O[C@@]3(CO)CCO[C@@H]2[C@@H]3O)c(=O)[nH]1` the EC50 (Hepatitis C virus) was greater than 50 µM and the Activity [1] was “Non-toxic”.
`O=c1ccn([C@@H]2O[C@@]3(COP(=O)(O)OP(=O)(O)OP(=O)(O)O)CO[C@@H]2[C@@H]3O)c(=O)[nH]1` gave an IC50 [2] of 12.8 µM and an IC50 [3] of 3.84 µM.
With `Nc1ccn([C@@H]2O[C@@]3(CO)CO[C@@H]2[C@@H]3O)c(=O)n1` the EC50 (Hepatitis C virus) was greater than 50 µM and the Activity [1] was “Non-toxic”.
`Nc1nc2c(ncn2[C@@H]2O[C@@]3(COP(=O)(O)OP(=O)(O)OP(=O)(O)O)CO[C@@H]2[C@@H]3O)c(=O)[nH]1` gave an IC50 [2] of 0.38 µM, an IC50 [3] of 0.39 µM and an IC50 [5] of 0.29 µM. The IC50 [6] was 0.31 µM, the IC50 [7] was 0.2 µM and the IC50 [8] was 0.37 µM.
For `Nc1ccn([C@@H]2O[C@@]3(COP(=O)(O)OP(=O)(O)OP(=O)(O)O)CO[C@@H]2[C@@H]3O)c(=O)n1`, the IC50 [2] was 1.44 µM and the IC50 [3] was 1.39 µM.
For `Nc1nc2c(ncn2[C@@H]2O[C@@]3(CO)CO[C@@H]2[C@@H]3O)c(=O)[nH]1`, the EC50 (Hepatitis C virus) was greater than 50 µM and the Activity [1] was “Non-toxic”.
